From US20110065632A1, “PHARMACEUTICAL COMPOSITIONS OF SOMATOSTATIN-DOPAMINE CONJUGATES” (priority 2008, published 2011)
pKi: −log10 of the molar value. Like-named read-outs stand apart in the source and are kept apart here. Numbered stars: 1 amine (or outer) side, 2 acyl side, 3 side chain; on linkers, the order of the positions; unused ones are H or OH. Bridge positions count the residues as written; N and C are the ends. Square brackets hold non-standard residues; d marks the D form. Peptide text beside a SMILES is read from it. * marks the point of attachment. X3 = CCCN1C[C@H](CSCC(=O)Oc2ccc(C[C@H](N[*:1])C(=O)[*:2])cc2I)C[C@@H]2c3cccc4[nH]cc(c34)C[C@H]21; X1 = CCCN1C[C@H](CSCC(=O)*)C[C@@H]2c3cccc4[nH]cc(c34)C[C@H]21; Abu = CC[C@H](N)C(=O)O; AEEA = NCCOCCOCC(=O)O

Key:
hUTII = target: T1, hUTII (Homo sapiens, UniProt Q9UKP6); assay: hUTII inhibition constant; format: binding; conditions: read-out: hUTII Ki
T1 sequence (Q9UKP6 1-389): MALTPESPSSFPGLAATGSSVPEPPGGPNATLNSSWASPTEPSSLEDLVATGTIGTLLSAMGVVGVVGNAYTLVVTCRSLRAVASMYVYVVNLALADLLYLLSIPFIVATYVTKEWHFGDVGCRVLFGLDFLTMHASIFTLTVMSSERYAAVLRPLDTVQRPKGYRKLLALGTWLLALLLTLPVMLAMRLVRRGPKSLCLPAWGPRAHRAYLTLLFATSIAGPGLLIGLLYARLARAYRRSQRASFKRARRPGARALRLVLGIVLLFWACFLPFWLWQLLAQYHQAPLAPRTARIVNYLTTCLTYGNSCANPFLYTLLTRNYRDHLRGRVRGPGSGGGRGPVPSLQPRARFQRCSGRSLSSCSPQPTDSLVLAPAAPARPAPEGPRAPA
Procedure: (§1) Using the discussed assays, the inhibition constants (Ki) for the five human somatostatin receptors (hSSTR1-hSSTR5) and the dopamine-2 receptor (hUTII and hDA2) were measured for the exemplified somatostatin-dopamine conjugates, as follows: […]

hsst3 = target: T2, hsst3 (Homo sapiens, UniProt P32745); assay: Somatostatin receptor radioligand binding assay, hsst3
T2 construct: expressed in transfected cells
Procedure: (§2) Specificity and selectivity of the somatostatin analogues used to synthesize the somatostatin-dopamine chimers were determined by a radioligand binding assay on CHO-K1 cells stably transfected with each of the SSTR subtypes, as follows. Somatostatin analogs are also described in U.S. Patent Application Publication No. 02210006790. The complete coding sequences of genomic fragments of the SSTR 1 (e.g., Genbank accession No. M81829), SSTR 2 (e.g., Genbank accession No. M81830), SSTR 3 (e.g., Genbank accession No. L07062), and SSTR 4 (e.g., Genbank accession No. AL049651) genes and a cDNA clone for SSTR 5 (e.g., Genbank accession No. D16827) was subcloned into the mammalian expression vector pCMV (Life Technologies, Milano, Italy). Other SSTR sequences are known to the skilled artisan. Clonal cell lines stably expressing SSTR's 1-5 were obtained by transfection into CHO-K1 cells (ATCC, Manassas, Va., USA) using the calcium phosphate co-precipitation method (Davis L, et al., 1994 In: Basic methods in Molecular Biology, 2nd edition, Appleton & Lange, Norwalk, Conn., USA: 611-646). The plasmid pRSV-neo (ATCC) was included as a selectable marker. Clonal cell lines were selected in RPMI 1640 media containing 0.5 mg/mL of G418 (Life Technologies, Milano, Italy), ring cloned, and expanded into culture.
(§3) Membranes for in vitro receptor binding assays were obtained by homogenizing the CHO-K1 cells expressing the SSTR's subtypes in ice-cold 50 mM Tris-HCl and centrifuging twice at 39,000 g (10 min), with an intermediate resuspension in fresh buffer. The final pellets were resuspended in 10 mM Tris-HCl for assay.
(§4) For the SSTR 1, 3, 4, and 5 assays, aliquots of the membrane preparations were incubated 90 minutes at 25° C. with 0.05 nM [^125I-Tyr11]SS-14 in 50 mM HEPES (pH 7.4) containing 10 mg/mL BSA, 5 mM MgCl2, 200 KIU/mL Trasylol, 0.02 mg/mL bacitracin, and 0.02 mg/mL phenylmethylsuphonyl fluoride. The final assay volume was 0.3 mL.
(§5) For the SSTR 2 assay, 0.05 nM [^125I]MK-678 was employed as the radioligand and the incubation time was 90 minutes at 25° C. The incubations were terminated by rapid filtration through GF/C glass microfiber filters (Whatman Co.) (pre-soaked in 0.3% polyethylenimine) using a BRANDEL filtration manifold. Each tube and filter was washed three times with 5 mL aliquots of ice-cold buffer. Specific binding was defined as the total radioligand bound minus that bound in the presence of 1000 nM SS-14 for SSTR 1, 3, 4, and 5, or 1000 nM MK-678 for SSTR2.
as §1

hsst5 = target: T3, hsst5 (Homo sapiens, UniProt P35346); assay: Somatostatin receptor radioligand binding assay, hsst5; conditions: CHO-K1 membranes, [125I-Tyr11]SS-14
T3 construct: expressed in transfected cells
Procedure: as §2, §3, §4, §5

hsst1 = target: T4, hsst1 (Homo sapiens, UniProt P30872); assay: Somatostatin receptor radioligand binding assay, hsst1
T4 construct: expressed in transfected cells
Procedure: as §2, §3, §4, §5, §1

hDA2 = assay: Dopamine-2 receptor radioligand binding assay; set-up: species or system human; conditions: [3H]spiperone
Procedure: Specificity and selectivity for the dopamine-2 receptor of the dopamine analogues used to synthesize the somatostatin-dopamine chimers may be determined by a radioligand binding assay as follows.
Crude membranes were prepared by homogenization of frozen rat corpus striatum (Zivic Laboratories, Pittsburgh, Pa., USA) in 20 mL of ice-cold 50 mM Tris-HCl with a Brinkman Polytron cell disrupter (setting 6, 15 sec). Buffer was added to obtain a final volume of 40 mL, and the homogenate was centrifuged in a Sorval SS-34 rotor at 39,000 g for 10 minutes at 0-4° C. The resulting supernatant was decanted and discarded. The pellet was rehomogenized in ice-cold buffer, pre-incubated at 37° C. for 10 min, diluted, and centrifuged as before. The final pellet was resuspended in buffer and held on ice for the receptor binding assay.
For assay, aliquots of the washed membrane preparations and test compounds were incubated for 15 minutes (37° C.) with 0.25 nM [^3HI]spiperone (16.5 Ci.mmol, New England Nuclear, Boston, Mass., USA) in 50 mM Tris HCl, 120 mM NaCl, 5 mM KCl, 2 mM CaCl2, 1 mM MgCl2. The final assay volume was 1.0 mL. The incubations were terminated by rapid filtration through GF/B glass fibre filters using a Brandel filtration manifold. Each tube and filter was then washed three times with 5-mL aliquots of ice-cold buffer. Specific binding was defined as the total radioligand bound minus that bound in the presence of 1000 nM (+) butaclamol.
as §1

hsst2 = target: T5, hsst2 (Homo sapiens, UniProt P30874); assay: Somatostatin receptor radioligand binding assay, hsst2; conditions: CHO-K1 membranes, [125I]MK-678; read-out: hsst2 Ki
T5 construct: expressed in transfected cells
Procedure: as §2, §3, §5

[1] = CHO-K1 membranes, [125I-Tyr11]SS-14, read-out: hsst3 Ki
[2] = CHO-K1 membranes, [125I-Tyr11]SS-14, read-out: hsst1 Ki

T3 sequence (P35346 whole entry): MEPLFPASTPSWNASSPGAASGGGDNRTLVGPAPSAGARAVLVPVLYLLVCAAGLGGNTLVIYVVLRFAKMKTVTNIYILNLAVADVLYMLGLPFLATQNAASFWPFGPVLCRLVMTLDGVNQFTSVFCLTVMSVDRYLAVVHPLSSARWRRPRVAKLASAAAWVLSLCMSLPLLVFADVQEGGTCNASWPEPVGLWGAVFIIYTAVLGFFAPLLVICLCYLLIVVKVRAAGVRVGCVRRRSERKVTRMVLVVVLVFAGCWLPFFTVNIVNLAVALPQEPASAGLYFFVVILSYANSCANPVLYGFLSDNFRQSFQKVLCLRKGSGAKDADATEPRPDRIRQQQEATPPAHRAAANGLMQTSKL
T2 sequence (P32745 whole entry): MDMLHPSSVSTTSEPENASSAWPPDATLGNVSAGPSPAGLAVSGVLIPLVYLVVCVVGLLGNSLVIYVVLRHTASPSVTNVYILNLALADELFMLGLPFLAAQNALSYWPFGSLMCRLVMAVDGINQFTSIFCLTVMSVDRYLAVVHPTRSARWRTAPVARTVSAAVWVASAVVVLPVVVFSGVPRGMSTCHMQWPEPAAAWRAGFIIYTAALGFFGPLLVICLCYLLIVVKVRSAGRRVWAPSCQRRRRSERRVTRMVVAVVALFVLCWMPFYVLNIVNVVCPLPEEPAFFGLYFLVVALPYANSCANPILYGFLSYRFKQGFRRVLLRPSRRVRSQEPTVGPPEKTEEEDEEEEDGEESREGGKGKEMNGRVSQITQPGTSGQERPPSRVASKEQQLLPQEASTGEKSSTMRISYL
T5 sequence (P30874 whole entry): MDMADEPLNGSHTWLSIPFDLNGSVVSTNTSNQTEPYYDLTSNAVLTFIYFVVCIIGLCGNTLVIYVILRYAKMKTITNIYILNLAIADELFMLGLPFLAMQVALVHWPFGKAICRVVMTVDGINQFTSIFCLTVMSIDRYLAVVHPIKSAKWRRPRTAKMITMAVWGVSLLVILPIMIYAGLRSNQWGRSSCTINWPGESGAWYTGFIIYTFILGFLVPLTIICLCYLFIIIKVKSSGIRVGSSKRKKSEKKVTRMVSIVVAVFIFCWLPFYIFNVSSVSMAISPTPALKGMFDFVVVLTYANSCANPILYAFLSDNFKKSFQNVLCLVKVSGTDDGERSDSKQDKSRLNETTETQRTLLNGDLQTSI
T4 sequence (P30872 whole entry): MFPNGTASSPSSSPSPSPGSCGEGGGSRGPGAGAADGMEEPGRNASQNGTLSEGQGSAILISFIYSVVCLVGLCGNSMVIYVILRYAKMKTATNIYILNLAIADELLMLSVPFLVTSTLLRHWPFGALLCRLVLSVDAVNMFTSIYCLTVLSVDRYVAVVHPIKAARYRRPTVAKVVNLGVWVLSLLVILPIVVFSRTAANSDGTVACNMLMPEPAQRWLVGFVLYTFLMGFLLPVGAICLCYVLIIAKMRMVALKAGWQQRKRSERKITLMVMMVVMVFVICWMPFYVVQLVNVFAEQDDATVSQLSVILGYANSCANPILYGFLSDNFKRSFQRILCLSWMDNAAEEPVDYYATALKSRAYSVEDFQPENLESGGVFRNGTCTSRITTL

Compound | pKi (hUTII) | pKi (hsst3; [1]) | pKi (hsst5; read-out: hsst5 Ki) | pKi (hsst1; [2]) | pKi (hDA2) | pKi (hsst2) | pKi (hsst3) | pKi (hsst5; hsst5 Ki) | pKi (hsst1)
CCCN1C[C@H](CSCC(=O)N[C@H](Cc2ccccc2)C(=O)NCCOCCOCC(=O)N[C@H](Cc2ccccc2)C(=O)N[C@H]2CSSC[C@@H](C(=O)N[C@H](C(N)=O)[C@@H](C)O)NC(=O)[C@H](C(C)C)NC(=O)[C@H](CCCCN)NC(=O)[C@@H](Cc3c[nH]c4ccccc34)NC(=O)[C@H](Cc3ccc(OC(=O)CSC[C@@H]4C[C@@H]5c6cccc7[nH]cc(c67)C[C@H]5N(CCC)C4)c(I)c3)NC2=O)C[C@@H]2c3cccc4[nH]cc(c34)C[C@H]21 [Example 5] (X1-[dF][AEEA][dF]C[X3][dW]KVCT-NH2; disulfide 4-9) | 6.98 | 5.98 | 7.56 | 6.00 | 7.81 | 8.78 |  |  | 
C=CCN1C[C@H](C(=O)N(CCCN(C)CC(=O)N[C@H](Cc2ccccc2)C(=O)N[C@H]2CSSC[C@@H](C(=O)N[C@H](C(N)=O)[C@@H](C)O)NC(=O)[C@H](CC)NC(=O)[C@H](CCCCN)NC(=O)[C@@H](Cc3c[nH]c4ccccc34)NC(=O)[C@H](Cc3ccc(O)cc3)NC2=O)C(=O)NCC)C[C@@H]2c3cccc4[nH]cc(c34)C[C@H]21 [Example 6] | 6.17 | 6.10 | 7.25 | 6.29 | 7.19 | 9.29 |  |  | 
CCNC(=O)N(CCCN(C)CC(=O)N[C@H](Cc1ccccc1)C(=O)N[C@H]1CSSC[C@@H](C(=O)N[C@H](C(N)=O)[C@@H](C)O)NC(=O)[C@H](CC)NC(=O)[C@H](CCCCN)NC(=O)[C@@H](Cc2c[nH]c3ccccc23)NC(=O)[C@H](Cc2ccc(O)cc2)NC1=O)C(=O)[C@H]1CN[C@@H]2Cc3c[nH]c4cccc(c34)[C@H]2C1 [Example 7] | 6.16 | 6.57 | 7.54 | 6.46 | 6.71 | 9.72 |  |  | 
CCCN1C[C@H](CSCC(=O)NCCOCCOCC(=O)N[C@H](Cc2ccccc2)C(=O)N[C@H]2CSSC[C@@H](C(=O)N[C@H](C(N)=O)[C@@H](C)O)NC(=O)[C@H](CC)NC(=O)[C@H](CCCCN)NC(=O)[C@@H](Cc3c[nH]c4ccccc34)NC(=O)[C@H](Cc3ccc(O)cc3)NC2=O)C[C@@H]2c3cccc4[nH]cc(c34)C[C@H]21 [Example 8] | 6.78 | 6.90 | 7.61 | 5.81 | 7.07 | 9.96 |  |  | 
CCCN1C[C@H](CSCC(=O)NCCCC[C@H](NC(=O)CSC[C@@H]2C[C@@H]3c4cccc5[nH]cc(c45)C[C@H]3N(CCC)C2)C(=O)N[C@H]2CSSC[C@@H](C(=O)N[C@H](C(N)=O)[C@@H](C)O)NC(=O)[C@H](CC)NC(=O)[C@H](CCCCN)NC(=O)[C@@H](Cc3c[nH]c4ccccc34)NC(=O)[C@H](Cc3ccc(O)cc3)NC2=O)C[C@@H]2c3cccc4[nH]cc(c34)C[C@H]21 [Example 9] | 6.20 |  |  |  | 8.08 | 9.27 | 6.27 | 7.00 | 6.56
CCCN1C[C@H](CSCC(=O)NCCCC[C@H](NC(=O)CSC[C@@H]2C[C@@H]3c4cccc5[nH]cc(c45)C[C@H]3N(CCC)C2)C(=O)N[C@H](Cc2ccc(O)cc2)C(=O)N[C@H](Cc2ccc(O)cc2)C(=O)N[C@H]2CSSC[C@@H](C(=O)N[C@H](C(N)=O)[C@@H](C)O)NC(=O)[C@H](CC)NC(=O)[C@H](CCCCN)NC(=O)[C@@H](Cc3c[nH]c4ccccc34)NC(=O)[C@H](Cc3ccc(O)cc3)NC2=O)C[C@@H]2c3cccc4[nH]cc(c34)C[C@H]21 [Example 10] (X1-K(X1)[dY][dY]CY[dW]K[Abu]CT-NH2; disulfide 4-9) | 6.75 | 6.49 | 7.58 | 6.26 | 8.09 | 9.82 |  |  | 
CCCN1C[C@H](CSCC(=O)NCCCC[C@H](NC(C)=O)C(=O)N[C@H](Cc2ccc(O)cc2)C(=O)N[C@H](Cc2ccc(O)cc2)C(=O)N[C@H]2CSSC[C@@H](C(=O)N[C@H](C(N)=O)[C@@H](C)O)NC(=O)[C@H](CC)NC(=O)[C@H](CCCCN)NC(=O)[C@@H](Cc3c[nH]c4ccccc34)NC(=O)[C@H](Cc3ccc(O)cc3)NC2=O)C[C@@H]2c3cccc4[nH]cc(c34)C[C@H]21 [Example 11] (Ac-K(X1)[dY][dY]CY[dW]K[Abu]CT-NH2; disulfide 4-9) | 7.19 | 6.79 | 8.05 | 6.36 | 6.92 | 10.40 |  |  | 
CCCN1C[C@H](CSCC(=O)N[C@H](Cc2ccccc2)C(=O)N[C@H]2CSSC[C@@H](C(=O)N[C@H](C(N)=O)[C@@H](C)O)NC(=O)[C@H]([C@@H](C)O)NC(=O)[C@H](CCCCN)NC(=O)[C@@H](Cc3c[nH]c4ccccc34)NC(=O)[C@H](Cc3ccc(O)c(I)c3)NC2=O)C[C@@H]2c3cccc4[nH]cc(c34)C[C@H]21 [Example 12] | 6.17 | 7.29 | 8.39 | 6.22 | 7.60 |  |  |  | 
CCCN1C[C@H](CSCC(=O)NCCCC[C@@H](NC(=O)CSC[C@@H]2C[C@@H]3c4cccc5[nH]cc(c45)C[C@H]3N(CCC)C2)C(=O)N[C@H](Cc2ccccc2)C(=O)N[C@H]2CSSC[C@@H](C(=O)N[C@H](C(N)=O)[C@@H](C)O)NC(=O)[C@H]([C@@H](C)O)NC(=O)[C@H](CCCCN)NC(=O)[C@@H](Cc3c[nH]c4ccccc34)NC(=O)[C@H](Cc3ccc(O)c(I)c3)NC2=O)C[C@@H]2c3cccc4[nH]cc(c34)C[C@H]21 [Example 13] |  | 6.71 | 7.97 | 6.04 | 7.82 |  |  |  | 
CCCN1C[C@H](CSCC(=O)NCCCC[C@@H](NC(C)=O)C(=O)N[C@H](Cc2ccccc2)C(=O)N[C@H]2CSSC[C@@H](C(=O)N[C@H](C(N)=O)[C@@H](C)O)NC(=O)[C@H]([C@@H](C)O)NC(=O)[C@H](CCCCN)NC(=O)[C@@H](Cc3c[nH]c4ccccc34)NC(=O)[C@H](Cc3ccc(O)c(I)c3)NC2=O)C[C@@H]2c3cccc4[nH]cc(c34)C[C@H]21 [Example 14] | 5.82 | 7.15 | 8.57 | 5.87 | 7.35 |  |  |  | 
